Like-named read-outs stand apart in the source and are kept apart here.
What was measured:
primary hand OA = conditions: Basoki et al., Ann Rheum Dis 2015; cited from earlier work
hand OA participants [1] = conditions: for Consumption of rescue medication (total): paracetamol up to 4 g daily as rescue medication, per-protocol population; for Average use of paracetamol as rescue medication compared with placebo: result in words
From the text: (§1) Participants were issued with a diary card with their medication to be completed for VAS pain rating on a daily basis. […] The protocol recommended that participants should record use of rescue medication (paracetamol up to 4 g daily) in their diary card. […] All other care was at the discretion of the treating physicians.

knee OA = conditions: Chappell et al., Pain 2009; cited from earlier work
hand OA participants [2] = conditions: per-protocol; for Hospital Anxiety and Depression Scale Depression Mean diff (95% CI): baseline to 90 days; for Hospital Anxiety and Depression Scale Anxiety Baseline (95% CI): listed as head as printed; for Hospital Anxiety and Depression Scale Anxiety: listed as head prints only 'Anxiety'
From the text: Additional secondary outcomes included the Numerical Rating Scale (NRS) pain rating 0-10, the Hospital Anxiety and Depression Scale (HADS) (Bjelland et al., Journal of Psychosomatic Research. 2002; 52(2): 69-77) and pain sensitisation measures in the three treatment groups at baseline and at week 13.

hand OA participants [3] = conditions: per-protocol; for Numerical Rating Scale (NRS) 90 days (95% CI) / Numerical Rating Scale (NRS) Baseline (95% CI): imputed data; for Numerical Rating Scale (NRS) Baseline (95% CI): scale 0-10; for Numerical Rating Scale (NRS) Mean diff (95% CI): baseline to 90 days
From the text: as §1
Additional secondary outcomes included the Numerical Rating Scale (NRS) pain rating 0-10, the Hospital Anxiety and Depression Scale (HADS) (Bjelland et al., Journal of Psychosomatic Research. 2002; 52(2): 69-77) and pain sensitisation measures in the three treatment groups at baseline and at week 13. Operational definitions for all end points, including time points for comparisons, were specified prospectively in the trial protocol.
(§2) The AUSCAN pain, stiffness and function outcomes are presented as means and 95% confidence intervals. Analysed between group were comparisons by the Mann Whitney U test. Baseline characteristics in each group are shown by mean values and standard deviation. […] IBM SPSS Statistics 21.0 was used for all analyses and graphs were plotted using Graphpad Prism version 6.

hand OA participants [4] = conditions: for AUSCAN pain score 90 days (95% CI) / AUSCAN pain score Baseline (95% CI): per-protocol population; for AUSCAN pain score 90 days (95% CI) / AUSCAN pain score Baseline (95% CI) / AUSCAN function 90 days (95% CI) / AUSCAN stiffness 90 days (95% CI) / AUSCAN function Baseline (95% CI) / AUSCAN stiffness Baseline (95% CI): imputed data; for AUSCAN pain score 90 days (95% CI): pregabalin up to 300 mg, duloxetine up to 60 mg daily; for AUSCAN pain score Baseline (95% CI): 5 questions 0-100 mm, total of 500; for AUSCAN function 90 days (95% CI) / AUSCAN stiffness 90 days (95% CI) / AUSCAN function Baseline (95% CI) / AUSCAN stiffness Baseline (95% CI) / AUSCAN function Mean diff (95% CI) / AUSCAN stiffness Mean diff (95% CI) / AUSCAN pain score Mean diff (95% CI): per-protocol; for AUSCAN stiffness Baseline (95% CI): one question 0-100 mm; for AUSCAN function Mean diff (95% CI) / AUSCAN stiffness Mean diff (95% CI): baseline to 90 days; for AUSCAN pain score Mean diff (95% CI): change between baseline and 90 days (13 weeks), primary endpoint
From the text: Inclusion criteria: Participants were eligible for screening if they were aged 40-75 years, had hand OA diagnosed by ACR criteria (Altman et al., Arthritis and Rheumatism 1990; 33(11): 1601-10) confirmed by a rheumatologist and experiencing pain of at least 5 or above on a numerical rating scale (NRS) of 0-10. […] All participants underwent baseline hand radiography to confirm radiographic evidence of OA. The radiographic findings were used to confirm radiographic evidence of OA from ACR criteria of at least 3 joints affected, with a Kellgren-Lawrence grade (Kellgren et al., Ann Rheum Dis 1957; 16(4): 494-502) of 2 or above in at least 3 affected joints. Radiographic scoring was performed after a training session independently by 2 researchers.
Participants were issued with a diary card with their medication to be completed for VAS pain rating on a daily basis. […] The protocol recommended that participants should record use of rescue medication (paracetamol up to 4 g daily) in their diary card.
The primary end point was the Australian and Canadian Hand Osteoarthritis Index (AUSCAN) rating scale 3.1 with sub-scales for pain, which is a validated measure of hand pain, stiffness and function in clinical trials of hand OA (Bellamy et al., Arthritis Care Res (Hoboken) 2015; 67(7): 972-80). Based on IMMPACT guidelines for pain trials (Dworkin et al., Pain 2005; 113: 9-19), primary end-point data for the AUSCAN pain sub-scale was collected. The primary endpoint was change in AUSCAN pain between baseline and 13 weeks. Patient-reported symptoms were recorded in three domains and participants asked to record their scores based on symptoms ‘in the last 48 hours’. Pain reporting consists of 5 questions, rated at 0-100 mm each, for pain in the hands at rest, gripping objects, turning and squeezing objects, scoring out of a total of 500.
For secondary outcome data, the AUSCAN stiffness and function scales were recorded; there was one question for stiffness symptoms (0-100 mm) and 3 questions testing function (0-100 mm each). Additional secondary outcomes included the Numerical Rating Scale (NRS) pain rating 0-10, the Hospital Anxiety and Depression Scale (HADS) (Bjelland et al., Journal of Psychosomatic Research. 2002; 52(2): 69-77) and pain sensitisation measures in the three treatment groups at baseline and at week 13. Operational definitions for all end points, including time points for comparisons, were specified prospectively in the trial protocol.
as §2

hand OA participants [5] = conditions: for Side effects: Total (adverse events recorded): all systems, whole treatment group; for Participants discontinuing treatment / withdrawing because of (serious) adverse events: number of participants
Method: The safety and tolerability of these agents used in this context was secondarily explored, and pain sensitisation measures were assessed.
as §1

[6] = number of adverse events recorded in treatment group

SMILES: CCN(CCO)CCCC(C)Nc1ccnc2cc(Cl)ccc12 (stereo not shown) [hydroxychloroquine]
- Pain reduction compared to placebo in primary hand OA (primary hand OA): did not reduce pain compared to placebo

SMILES: CNCC[C@H](Oc1cccc2ccccc12)c1cccs1 [Duloxetine]
- Consumption of rescue medication (total) (hand OA participants [1]): 5 days
- Average use of paracetamol as rescue medication compared with placebo (hand OA participants [1]): much lower
- Efficacy for pain outcomes in knee OA (knee OA): shown efficacy for pain outcomes in knee OA
- Hospital Anxiety and Depression Scale Depression 90 days (95% CI) (hand OA participants [2]): 3.8 (1.9 to 5.7)
- Hospital Anxiety and Depression Scale Depression Baseline (95% CI) (hand OA participants [2]): 4.1 (2.3 to 5.9)
- Hospital Anxiety and Depression Scale Depression Mean diff (95% CI) (hand OA participants [2]): −0.3 (−1.8 to 1.2)
- Hospital Anxiety and Depression Scale Anxiety Baseline (95% CI) (hand OA participants [2]): 4.3 (2.2 to 6.3)
- Hospital Anxiety and Depression Scale Anxiety (hand OA participants [2]): 5.6 (3.6 to 7.5)
- Numerical Rating Scale (NRS) 90 days (95% CI) (hand OA participants [3]): 4.3 (2.6 to 5.9)
- Numerical Rating Scale (NRS) Baseline (95% CI) (hand OA participants [3]): 6.6 (5.7 to 7.4)
- Numerical Rating Scale (NRS) Mean diff (95% CI) (hand OA participants [3]): −2.3 (−3.8 to −0.9)
- Significant improvement in AUSCAN pain, stiffness or function compared with placebo (hand OA participants [4]; baseline to 13 weeks, result in words): Significant improvement in AUSCAN pain, stiffness or function were not observed
- AUSCAN pain score 90 days (95% CI) (hand OA participants [4]): 248.1 (162.3 to 333.9)
- AUSCAN pain score Baseline (95% CI) (hand OA participants [4]): 310.6 (254.3 to 367.0)
- AUSCAN function 90 days (95% CI) (hand OA participants [4]): 496.4 (342.4 to 650.5)
- AUSCAN stiffness 90 days (95% CI) (hand OA participants [4]): 48.3 (29.9 to 66.6)
- AUSCAN function Baseline (95% CI) (hand OA participants [4]): 598.3 (481.2 to 715.3)
- AUSCAN stiffness Baseline (95% CI) (hand OA participants [4]): 61.8 (45.8 to 77.8)
- AUSCAN function Mean diff (95% CI) (hand OA participants [4]): −101.9 (−248.4 to −44.8)
- AUSCAN stiffness Mean diff (95% CI) (hand OA participants [4]): −13.5 (26.5 to −0.6)
- AUSCAN pain score Mean diff (95% CI) (hand OA participants [4]): −62.5 (−141.6 to 16.6)
- AUSCAN pain score Mean diff (95% CI) (hand OA participants [4]; listed as duloxetine): −62.5
- Side effects: Total (adverse events recorded) (hand OA participants [5]): 57
- Side effects: Cardiovascular (hand OA participants [5]; [6]): 2
- Side effects: Digestive (hand OA participants [5]; [6]): 18
- Side effects: ENT (hand OA participants [5]; [6]): 2
- Side effects: Mental (hand OA participants [5]; [6]): 9
- Side effects: Nervous system, Dizziness (hand OA participants [5]; [6]): 3
- Side effects: Nervous system, Dry mouth (hand OA participants [5]; [6]): 6
- Side effects: Nervous system, Headaches (hand OA participants [5]; [6]): 8
- Side effects: Nervous system, Sleepiness (hand OA participants [5]; [6]): 3
- Side effects: Ophthalmological (hand OA participants [5]; [6]): 2
- Side effects: Respiratory (hand OA participants [5]; [6]): 3
- Side effects: Skin (hand OA participants [5]; [6]): 1
- Participants discontinuing treatment / withdrawing because of (serious) adverse events (hand OA participants [5]): 2

SMILES: CC(C)C[C@H](CN)CC(=O)O [Pregabalin, (3S)-3-(aminomethyl)-5-methylhexanoic acid]
- Consumption of rescue medication (total) (hand OA participants [1]): 9 days
- Average use of paracetamol as rescue medication compared with placebo (hand OA participants [1]): much lower
- Hospital Anxiety and Depression Scale Depression 90 days (95% CI) (hand OA participants [2]): 4.1 (2.6 to 5.6)
- Hospital Anxiety and Depression Scale Depression Baseline (95% CI) (hand OA participants [2]): 5.1 (3.3 to 6.9)
- Hospital Anxiety and Depression Scale Depression Mean diff (95% CI) (hand OA participants [2]): −1.1 (−2.1 to −0.02)
- Hospital Anxiety and Depression Scale Anxiety Baseline (95% CI) (hand OA participants [2]): 5.2 (2.9 to 7.5)
- Hospital Anxiety and Depression Scale Anxiety (hand OA participants [2]): 6.1 (3.8 to 8.3)
- Numerical Rating Scale (NRS) 90 days (95% CI) (hand OA participants [3]): 3.4 (2.4 to 4.4)
- Numerical Rating Scale (NRS) Baseline (95% CI) (hand OA participants [3]): 6.1 (5.4 to 6.7)
- Numerical Rating Scale (NRS) Mean diff (95% CI) (hand OA participants [3]): −2.7 (−3.5 to −1.9)
- AUSCAN pain score 90 days (95% CI) (hand OA participants [4]): 176.5 (123.9 to 229.1)
- AUSCAN pain score Baseline (95% CI) (hand OA participants [4]): 308.5 (262.6 to 354.5)
- AUSCAN function 90 days (95% CI) (hand OA participants [4]): 362.2 (281.7 to 442.7)
- AUSCAN stiffness 90 days (95% CI) (hand OA participants [4]): 36.5 (23.0 to 49.9)
- AUSCAN function Baseline (95% CI) (hand OA participants [4]): 608.5 (541.3 to 675.7)
- AUSCAN stiffness Baseline (95% CI) (hand OA participants [4]): 59.9 (51.8 to 67.9)
- AUSCAN function Mean diff (95% CI) (hand OA participants [4]): −246.3 (−341.7 to −151.0)
- AUSCAN stiffness Mean diff (95% CI) (hand OA participants [4]): −23.4 (−35.7 to −11.1)
- AUSCAN pain score Mean diff (95% CI) (hand OA participants [4]): −132.0 (−181.1 to −82.9)
- AUSCAN pain score Mean diff (95% CI) (hand OA participants [4]; listed as pregabalin): −132.0
- Dose giving maximum analgesic and functional improvement effect (AUSCAN trajectory, FIG. 3) (hand OA participants [4]; result in words): maximum analgesic and functional improvement effect at the higher dose of 300 mg
- Side effects: Total (adverse events recorded) (hand OA participants [5]): 55
- Side effects: Cardiovascular (hand OA participants [5]; [6]): 3
- Side effects: Digestive (hand OA participants [5]; [6]): 7
- Side effects: Genitourinary (hand OA participants [5]; [6]): 1
- Side effects: Mental (hand OA participants [5]; [6]): 9
- Side effects: Nervous system, Dizziness (hand OA participants [5]; [6]): 7
- Side effects: Nervous system, Dry mouth (hand OA participants [5]; [6]): 6
- Side effects: Nervous system, Headaches (hand OA participants [5]; [6]): 3
- Side effects: Nervous system, Loss of balance (hand OA participants [5]; [6]): 7
- Side effects: Nervous system, Sleepiness (hand OA participants [5]; [6]): 5
- Side effects: Ophthalmological (hand OA participants [5]; [6]): 4
- Side effects: Respiratory (hand OA participants [5]; [6]): 2
- Participants discontinuing treatment / withdrawing because of (serious) adverse events (hand OA participants [5]): 4

From US11406613B2, “Treatment of osteoarthritis” (ST GEORGE'S HOSPITAL MEDICAL SCHOOL, priority 2016, dated 2022)
